According to US20070154549A1, “Multiparticulate formulations for oral delivery” (VECTURA LTD, priority 2003, published 2007):
Counter-ions that a name gives are not always drawn.

Test: Dissolution studies / drug release
Assay type: physicochemical
Conditions: levels of hydrophobic melt binder of up to 20%

Question: Which drug release does the source give for `CN(C)CCC(c1ccc(Cl)cc1)c1ccccn1` (stereo not shown) [chlorpheniramine maleate] here?
Answer: do not delay drug release
